Results as given in US4277465A, “Adjuvant for promoting absorption of therapeutically active substances through the digestive tract” (Kyoto Yakuhin Kogyo Kabushiki Kaisha, priority 1978, dated 1981).

Tests used:
Type in all cases: in vivo
[1] = Rectal insulin suppositories (Recipes 21-34), glucose response; details: rectal suppository 6 I.U. insulin
Protocol: |Enamine derivative (I) | As indicated in | Table 12 […] The above components were used to prepare rectal suppositories in accordance with established pharmaceutical practice. The suppositories were administered to rabbits and dogs by rectal route. […] The test was conducted by the glucose oxidase method.

[2] = Rectal suppositories of AB-PC-Na with enamine derivative, concentration in blood; details: AB-PC-Na 75mg, dog
Protocol: These suppositories were rectally administered to dogs and the absorbabilities of the active components were investigated by measuring the blood concentrations. The blood concentrations were measured in conformity with the biological assay method in the Antibiotic Standard of Japan. The cup method was employed with Sarcina lutea for penicillins and Bacillus subtilis for cephalosporins.

[3] = Rectal insulin suppositories (Recipes 35-41), glucose response; details: rabbit 2.5-3kg; rectal suppository 6 I.U. insulin; enamine derivative 0.025g (5%)
Text: These suppositories were rectally administered to rabbits (R, 2.5-3kg) and dogs (D, 12-13kg).

[4] = Rectal suppositories of CET-Na with enamine derivative, concentration in blood; details: dog
Protocol: These suppositories were rectally administered to dogs and the absorbabilities of the active components were investigated by measuring the blood concentrations.
The blood concentrations were measured in conformity with the biological assay method in the Antibiotic Standard of Japan. The cup method was employed with Sarcina lutea for penicillins and Bacillus subtilis for cephalosporins.

[5] = enamine derivative 60mg (5%), base Witepsol H-15 1065mg
[6] = CET-Na 500mg, enamine derivative 150mg (10%), base Witepsol H-15 850mg
[7] = enamine derivative 120mg (10%), base SB-W 1005mg
[8] = enamine derivative 120mg (10%), base Witepsol H-15 1005mg
[9] = CET-Na 75mg, enamine derivative 60mg (5%), base Witepsol H-15 1065mg

Question: Which “Blood glucose response (6 I.U.)” value ([1]; rabbit, enamine derivative 10%) does the source give for CCOC(=O)C=C(C)N[C@@H](Cc1c[nH]cn1)C(=O)[O-].[Na+] [Compound 28, α-N-(1-Methyl-2-ethoxycarbonylvinyl)-L-histidine sodium salt] here?
Answer: 30%

Question: What about the “Time course: Lowest level” value ([1]; rabbit, enamine derivative 10%) of the same compound?
Answer: 60 to 90 min

Question: What about the “Time course: Onset” value ([1]; rabbit, enamine derivative 10%) of the same compound?
Answer: 30 min

Question: What about the “Time course: Return to pre-medication level” value (“Time course: Return” for short) ([1]; rabbit, enamine derivative 10%) of the same compound?
Answer: 180 min

Question: Which “Time course: Lowest level” value ([1]; rabbit, enamine derivative 10%) does the source give for CCOC(=O)C=C(C)N[C@@H](CCSC)C(=O)[O-].[Na+] [Compound 23, N-(1-Methyl-2-ethoxycarbonylvinyl)-L-methionine sodium salt] here?
Answer: 60 to 90 min

Question: What about the “Time course: Onset” value ([1]; rabbit, enamine derivative 10%) of the same compound?
Answer: 30 min

Question: What about the “Time course: Return” value ([1]; rabbit, enamine derivative 10%) of the same compound?
Answer: 180 min

Question: What about the “Concentration in blood, 15 min.” value [2, 5] of the same compound?
Answer: 520 ng/mL

Question: And the “Concentration in blood, 30 min.” value [2, 5]?
Answer: 340 ng/mL

Question: What about the “Concentration in blood, 60 min.” value [2, 5] of the same compound?
Answer: 180 ng/mL

Question: What about the “Concentration in blood, 120 min.” value [2, 5] of the same compound?
Answer: 80 ng/mL

Question: Which results are given for CCOC(=O)C=C(C)NC(C(=O)[O-])c1ccccc1.[Na+] (racemic) [Compound 24, N-(1-Methyl-2-ethoxycarbonylvinyl)-DL-phenylglycine sodium salt]?
Answer: Time course: Lowest level ([1]; rabbit, enamine derivative 1%): 30 to 60 min; Time course: Onset ([1]; rabbit, enamine derivative 1%): 15 min; Time course: Return to pre-medication level ([1]; rabbit, enamine derivative 1%): 180 min

Question: For CC(=CC(=O)OC(C)C(=O)O)N[C@@H](CCCNC(=N)N)C(=O)O (stereo partly drawn) [Compound 35, α-N-(1-Methyl-2-(1-carboxy-ethoxycarbonyl)vinyl]-L-arginine], which “Blood glucose response (6 I.U.)” value [3] is on record?
Answer: 20-30%

Question: What about the “Time course: Lowest level” value [3] of the same compound?
Answer: 30 to 60 min

Question: What about the “Time course: Onset” value [3] of the same compound?
Answer: 15 min

Question: And the “Time course: Return” value [3]?
Answer: 120 min

Question: Which results are given for CCOC(=O)C=C(C)N[C@H](C(=O)[O-])[C@@H](C)CC.[Na+] [Compound 20, N-(1-Methyl-2-ethoxycarbonylvinyl)-L-isoleucine sodium salt]?
Answer: Blood glucose response (6 I.U.) ([1]; dog, enamine derivative 2%): 25-35%; Time course: Lowest level ([1]; dog, enamine derivative 2%): 120 min; Time course: Onset ([1]; dog, enamine derivative 2%): 60 to 90 min; Time course: Return to pre-medication level ([1]; dog, enamine derivative 2%): 180 to 240 min; Concentration in blood, 15 min. [4, 6]: 9000 ng/mL; Concentration in blood, 30 min. [4, 6]: 6230 ng/mL; Concentration in blood, 60 min. [4, 6]: 2910 ng/mL; Concentration in blood, 120 min. [4, 6]: 1000 ng/mL

Question: Which “Time course: Lowest level” value ([1]; rabbit, enamine derivative 1%) does the source give for CCOC(=O)C=C(C)NC(C)C(=O)[O-].[Na+] (racemic) [Compound 18, N-(1-Methyl-2-ethoxycarbonylvinyl)-DL-alanine sodium salt] here?
Answer: 45 to 60 min

Question: What about the “Time course: Onset” value ([1]; rabbit, enamine derivative 1%) of the same compound?
Answer: 30 min

Question: What about the “Time course: Return” value ([1]; rabbit, enamine derivative 1%) of the same compound?
Answer: 180 min

Question: Which “Time course: Lowest level” value ([1]; rabbit, enamine derivative 10%) does the source give for CCOC(=O)C=C(C)N[C@H](C(=O)[O-])C(C)C.[Na+] [Compound 26, N-(1-Methyl-2-ethoxycarbonylvinyl)-L-valine sodium salt] here?
Answer: 60 to 90 min

Question: And the “Time course: Onset” value ([1]; rabbit, enamine derivative 10%)?
Answer: 30 min

Question: What about the “Time course: Return” value ([1]; rabbit, enamine derivative 10%) of the same compound?
Answer: 180 min

Question: Which results are given for CCOC(=O)C=C(C)N[C@@H](CCCNC(=N)N)C(=O)O [Compound 29, α-N-(1-Methyl-2-ethoxycarbonylvinyl)-L-arginine]?
Answer: Blood glucose response (6 I.U.) ([1]; rabbit, enamine derivative 5%): 40-50%; Time course: Lowest level ([1]; rabbit, enamine derivative 5%): 60 to 90 min; Time course: Onset ([1]; rabbit, enamine derivative 5%): 15 min; Time course: Return to pre-medication level ([1]; rabbit, enamine derivative 5%): 210 min; Concentration in blood, 15 min. [2, 7]: 500 ng/mL; Concentration in blood, 30 min. [2, 7]: 530 ng/mL; Concentration in blood, 60 min. [2, 7]: 610 ng/mL; Concentration in blood, 120 min. [2, 7]: 410 ng/mL

Question: What does the source list for CCOC(=O)C=C(C)NCCCCCCCCCCC(=O)[O-].[Na+] [Compound 30, N-(1-Methyl-2-ethoxycarbonylvinyl)-11-aminoundecanoic acid sodium salt]?
Answer: Time course: Lowest level ([1]; rabbit, enamine derivative 10%): 60 to 90 min; Time course: Onset ([1]; rabbit, enamine derivative 10%): 30 min; Time course: Return to pre-medication level ([1]; rabbit, enamine derivative 10%): 180 min

Question: Which results are given for CCOC(=O)C(C)OC(=O)C=C(C)NC(C)C(=O)[O-].[Na+] (racemic) [Compound 33, N-[1-Methyl-2-(1-ethoxycarbonyl-ethoxycarbonyl)vinyl]-DL-alanine sodium salt]?
Answer: Blood glucose response (6 I.U.) [3]: 45-55%; Time course: Lowest level [3]: 45 to 60 min; Time course: Onset [3]: 15 min; Time course: Return to pre-medication level [3]: 150 min

Question: Which results are given for CC(=CC(=O)NCCO)N[C@@H](Cc1ccccc1)C(=O)[O-].[Na+] [Compound 36, N-[1-Methyl-2-(2-hydroxyethylcarbamoyl)vinyl]-L-phenylalanine sodium salt]?
Answer: Blood glucose response (6 I.U.) [3]: 20-30%; Time course: Lowest level [3]: 30 to 60 min; Time course: Onset [3]: 15 min; Time course: Return to pre-medication level [3]: 120 min; Concentration in blood, 15 min. [2, 8]: 1450 ng/mL; Concentration in blood, 30 min. [2, 8]: 1530 ng/mL; Concentration in blood, 60 min. [2, 8]: 800 ng/mL; Concentration in blood, 120 min. [2, 8]: 400 ng/mL

Question: For CCOC(=O)C=C(C)N[C@@H](Cc1ccccc1)C(=O)[O-].[Na+] [Compound 25, N-(1-Methyl-2-ethoxycarbonylvinyl)-L-phenylalanine sodium salt], which “Time course: Lowest level” value ([1]; rabbit, enamine derivative 1%) is on record?
Answer: 45 to 90 min

Question: And the “Time course: Onset” value ([1]; rabbit, enamine derivative 1%)?
Answer: 30 min

Question: And the “Time course: Return” value ([1]; rabbit, enamine derivative 1%)?
Answer: 180 min

Question: For CC(=CC(=O)OCC(O)CO)NCC(=O)[O-].[Na+] (stereo not drawn) [Compound 38, N-[1-Methyl-2-(2,3-dihydroxypropoxycarbonyl)vinyl]glycine sodium salt], which “Blood glucose response (6 I.U.)” value [3] is on record?
Answer: 45-55%

Question: What about the “Time course: Lowest level” value [3] of the same compound?
Answer: 45 to 60 min

Question: What about the “Time course: Onset” value [3] of the same compound?
Answer: 15 min

Question: And the “Time course: Return” value [3]?
Answer: 150 min

Question: What does the source list for CCOC(=O)C=C(C)N[C@@H](CO)C(=O)[O-].[Na+] [Compound 31, N-(1-Methyl-2-ethoxycarbonylvinyl)-L-serine sodium salt]?
Answer: Time course: Lowest level ([1]; rabbit, enamine derivative 10%): 60 to 90 min; Time course: Onset ([1]; rabbit, enamine derivative 10%): 30 min; Time course: Return to pre-medication level ([1]; rabbit, enamine derivative 10%): 180 min; Concentration in blood, 15 min. [2, 5]: 700 ng/mL; Concentration in blood, 30 min. [2, 5]: 380 ng/mL; Concentration in blood, 60 min. [2, 5]: 240 ng/mL; Concentration in blood, 120 min. [2, 5]: 90 ng/mL

Question: For CCOC(=O)C=C(C)N[C@@H](C)C(=O)[O-].[Na+] [Compound 19, N-(1-Methyl-2-ethoxycarbonylvinyl)-L-alanine sodium salt], which “Time course: Lowest level” value ([1]; rabbit, enamine derivative 1%) is on record?
Answer: 45 to 60 min

Question: And the “Time course: Onset” value ([1]; rabbit, enamine derivative 1%)?
Answer: 30 min

Question: What about the “Time course: Return” value ([1]; rabbit, enamine derivative 1%) of the same compound?
Answer: 180 min

Question: Which results are given for CCOC(=O)C=C(C)N[C@H](C(=O)[O-])[C@@H](C)O.[Na+] [Compound 22, N-(1-Methyl-2-ethoxycarbonylvinyl)-L-threonine sodium salt]?
Answer: Time course: Lowest level ([1]; rabbit, enamine derivative 5%): 45 to 75 min; Time course: Onset ([1]; rabbit, enamine derivative 5%): 30 min; Time course: Return to pre-medication level ([1]; rabbit, enamine derivative 5%): 180 min; Concentration in blood, 15 min. [4, 9]: 750 ng/mL; Concentration in blood, 30 min. [4, 9]: 570 ng/mL; Concentration in blood, 60 min. [4, 9]: 310 ng/mL

Question: With CCOC(=O)C=C(C)N[C@@H](CC(C)C)C(=O)[O-].[Na+] [Compound 21, N-(1-Methyl-2-ethoxycarbonylvinyl)-L-leucine sodium salt] as the compound, how does the “Blood glucose response (6 I.U.)” value ([1]; dog, enamine derivative 1%) read?
Answer: 35-45%

Question: What about the “Time course: Lowest level” value ([1]; dog, enamine derivative 1%) of the same compound?
Answer: 60 to 90 min

Question: And the “Time course: Onset” value ([1]; dog, enamine derivative 1%)?
Answer: 30 min

Question: And the “Time course: Return” value ([1]; dog, enamine derivative 1%)?
Answer: 180 min

Question: What does the source list for CCOC(=O)C=C(C)N[C@@H](Cc1c[nH]c2ccccc12)C(=O)[O-].[Na+] [Compound 27, α-N-(1-Methyl-2-ethoxycarbonylvinyl)-L-tryptophan sodium salt]?
Answer: Blood glucose response (6 I.U.) ([1]; rabbit, enamine derivative 10%): 30%; Time course: Lowest level ([1]; rabbit, enamine derivative 10%): 60 to 90 min; Time course: Onset ([1]; rabbit, enamine derivative 10%): 30 min; Time course: Return to pre-medication level ([1]; rabbit, enamine derivative 10%): 180 min; Concentration in blood, 15 min. [2, 7]: 1600 ng/mL; Concentration in blood, 30 min. [2, 7]: 1500 ng/mL; Concentration in blood, 60 min. [2, 7]: 740 ng/mL; Concentration in blood, 120 min. [2, 7]: 400 ng/mL
